BindingDB's records for doi:10.1021/jm300601d (Boehringer Ingelheim Pharmaceuticals, 2012)

Assay: Inhibition of NHE1 in human platelet rich plasma assessed as reduction of propionate medium induced platelet swelling measured every 6 secs for 5 mins

Question: With `N=C(N)NC(=O)c1ccc(C2CCN(C(=O)C3CC3)CC2)c(C(F)(F)F)c1` as the molecule, how does the EC50 read?
Answer: 50 nM

Question: With `N=C(N)NC(=O)c1ccc(C2CCN(C(=O)c3ccc(Cl)cc3)CC2)c(C(F)(F)F)c1` as the molecule, how does the EC50 read?
Answer: 1130 nM

Question: With `CCC(=O)N1CCC(c2ccc(C(=O)NC(=N)N)cc2C(F)(F)F)CC1` as the molecule, how does the EC50 read?
Answer: 31 nM

Question: Which EC50 does the source give for `N=C(N)NC(=O)c1ccc(C2CCN(C(=O)c3cccc(-c4cnco4)c3)CC2)c(C(F)(F)F)c1` here?
Answer: 353 nM

Question: With `N=C(N)NC(=O)c1ccc(C2CCN(C(=O)c3ccc(C(F)(F)F)cc3)CC2)c(C(F)(F)F)c1` as the molecule, how does the EC50 read?
Answer: 539 nM

Question: For `COc1cc(C2CCN(C(C)=O)CC2)c(C(F)(F)F)cc1C(=O)NC(=N)N`, which EC50 is on record?
Answer: 432 nM

Question: For `Cn1cncc1C(=O)N1CCC(c2ccc(C(=O)NC(=N)N)cc2C(F)(F)F)CC1`, which EC50 is on record?
Answer: 62 nM

Question: With `N=C(N)NC(=O)c1ccc(C2CCN(C(=O)c3ccc(S(N)(=O)=O)cc3)CC2)c(C(F)(F)F)c1` as the molecule, how does the EC50 read?
Answer: 23 nM

Question: With `N=C(N)NC(=O)c1ccc(N2CCC(NC(=O)c3ccc[nH]3)CC2)c(C(F)(F)F)c1` as the molecule, how does the EC50 read?
Answer: 950 nM

Question: Which EC50 does the source give for `N=C(N)NC(=O)c1ccc(C2CCN(C(=O)c3ccc(-c4cnco4)cc3)CC2)c(C(F)(F)F)c1` here?
Answer: 368 nM

Question: With `CC(=O)N1CCC(c2ccc(C(=O)NC(=N)N)cc2S(C)(=O)=O)CC1` as the molecule, how does the EC50 read?
Answer: 189 nM

Question: For `CC(=O)N1CCC(c2cc(C)c(C(=O)NC(=N)N)cc2S(C)(=O)=O)CC1`, which EC50 is on record?
Answer: 56 nM

Question: For `N=C(N)NC(=O)c1ccc(C2CCN(C(=O)c3ccccc3)CC2)c(C(F)(F)F)c1`, which EC50 is on record?
Answer: 109 nM

Question: For `N#Cc1cccc(C(=O)N2CCC(c3ccc(C(=O)NC(=N)N)cc3C(F)(F)F)CC2)c1`, which EC50 is on record?
Answer: 111 nM

Question: With `N=C(N)NC(=O)c1ccc(C2CCN(C(=O)c3ccncc3)CC2)c(C(F)(F)F)c1` as the molecule, how does the EC50 read?
Answer: 70 nM

Question: Which EC50 does the source give for `Cn1ccnc1C(=O)N1CCC(c2ccc(C(=O)NC(=N)N)cc2C(F)(F)F)CC1` here?
Answer: 111 nM

Question: With `N=C(N)NC(=O)c1ccc(C2CCN(C(=O)c3ccccc3Cl)CC2)c(C(F)(F)F)c1` as the molecule, how does the EC50 read?
Answer: 495 nM

Question: Which EC50 does the source give for `CS(=O)(=O)c1cccc(C(=O)N2CCC(c3ccc(C(=O)NC(=N)N)cc3C(F)(F)F)CC2)c1` here?
Answer: 50 nM

Question: With `N=C(N)NC(=O)c1ccc(C2CCN(C(=O)c3ccc(O)cc3)CC2)c(C(F)(F)F)c1` as the molecule, how does the EC50 read?
Answer: 138 nM

Question: With `CC(C)C(=O)N1CCC(c2ccc(C(=O)NC(=N)N)cc2C(F)(F)F)CC1` as the molecule, how does the EC50 read?
Answer: 79 nM

Question: For `N=C(N)NC(=O)c1ccc(C2CCN(C(=O)c3ccccn3)CC2)c(C(F)(F)F)c1`, which EC50 is on record?
Answer: 79 nM

Question: For `N=C(N)NC(=O)c1ccc(N2CCN(C(=O)c3ccc[nH]3)CC2)c(C(F)(F)F)c1` [SABIPORIDE], which EC50 is on record?
Answer: 172 nM

Question: Which EC50 does the source give for `N=C(N)NC(=O)c1ccc(N2CCCC(NC(=O)c3ccc[nH]3)C2)c(C(F)(F)F)c1` (centres undefined) here?
Answer: 3480 nM

Question: For `COCC(=O)N1CCC(c2ccc(C(=O)NC(=N)N)cc2C(F)(F)F)CC1`, which EC50 is on record?
Answer: 48 nM

Question: With `Cc1cc(C(=O)N2CCC(c3ccc(C(=O)NC(=N)N)cc3C(F)(F)F)CC2)nn1C` as the molecule, how does the EC50 read?
Answer: 115 nM

Question: Which EC50 does the source give for `CCC(=O)N1CCC(c2cc(C)c(C(=O)NC(=N)N)cc2S(C)(=O)=O)CC1` here?
Answer: 88 nM

Question: For `N=C(N)NC(=O)c1ccc(C2CCN(C(=O)c3cccnc3)CC2)c(C(F)(F)F)c1`, which EC50 is on record?
Answer: 32 nM

Question: Which EC50 does the source give for `N#Cc1ccc(C(=O)N2CCC(c3ccc(C(=O)NC(=N)N)cc3C(F)(F)F)CC2)cc1` here?
Answer: 152 nM

Question: For `CNS(=O)(=O)c1ccc(C(=O)N2CCC(c3ccc(C(=O)NC(=N)N)cc3C(F)(F)F)CC2)cc1`, which EC50 is on record?
Answer: 88 nM

Question: For `N=C(N)NC(=O)c1ccc(N2CCC(NC(=O)c3ccc[nH]3)C2)c(C(F)(F)F)c1` (centres undefined), which EC50 is on record?
Answer: 1590 nM

Question: Which EC50 does the source give for `COc1ccc(C(=O)N2CCC(c3ccc(C(=O)NC(=N)N)cc3C(F)(F)F)CC2)cc1` here?
Answer: 498 nM

Question: With `N=C(N)NC(=O)c1ccc(C2CCN(C(=O)c3ccc(-n4ccnc4)cc3)CC2)c(C(F)(F)F)c1` as the molecule, how does the EC50 read?
Answer: 169 nM

Question: For `CN(C)C(=O)c1ccc(C(=O)N2CCC(c3ccc(C(=O)NC(=N)N)cc3C(F)(F)F)CC2)cc1`, which EC50 is on record?
Answer: 77 nM

Question: Which EC50 does the source give for `N#Cc1ccccc1C(=O)N1CCC(c2ccc(C(=O)NC(=N)N)cc2C(F)(F)F)CC1` here?
Answer: 200 nM

Question: For `N=C(N)NC(=O)c1ccc(C2CCN(C(=O)c3ccc[nH]3)CC2)c(C(F)(F)F)c1`, which EC50 is on record?
Answer: 241 nM

Question: For `CC(C)(C)C(=O)N1CCC(c2ccc(C(=O)NC(=N)N)cc2C(F)(F)F)CC1`, which EC50 is on record?
Answer: 127 nM

Question: For `CC(=O)N1CCC(c2cc(C)c(C(=O)NC(=N)N)cc2C(F)(F)F)CC1`, which EC50 is on record?
Answer: 28 nM

Question: With `N=C(N)NC(=O)c1ccc(C2CCN(C(=O)c3cccc(Cl)c3)CC2)c(C(F)(F)F)c1` as the molecule, how does the EC50 read?
Answer: 989 nM

Question: Which EC50 does the source give for `N=C(N)NC(=O)c1ccc(C2CCN(C(=O)c3ccc(C(N)=O)cc3)CC2)c(C(F)(F)F)c1` here?
Answer: 36 nM

Question: Which EC50 does the source give for `N=C(N)NC(=O)c1ccc(C2CCN(C(=O)C3CCCC3)CC2)c(C(F)(F)F)c1` here?
Answer: 416 nM

Question: With `CS(=O)(=O)c1ccc(C(=O)N2CCC(c3ccc(C(=O)NC(=N)N)cc3C(F)(F)F)CC2)cc1` as the molecule, how does the EC50 read?
Answer: 93 nM

Question: For `N=C(N)NC(=O)c1ccc(C2CCN(C(=O)c3ccc(F)cc3)CC2)c(C(F)(F)F)c1`, which EC50 is on record?
Answer: 184 nM

Question: Which EC50 does the source give for `CCC(=O)N1CCC(c2ccc(C(=O)NC(=N)N)cc2S(C)(=O)=O)CC1` here?
Answer: 266 nM

Question: Which EC50 does the source give for `CS(=O)(=O)c1ccccc1C(=O)N1CCC(c2ccc(C(=O)NC(=N)N)cc2C(F)(F)F)CC1` here?
Answer: 269 nM

Question: Which EC50 does the source give for `CC(C)CC(=O)N1CCC(c2ccc(C(=O)NC(=N)N)cc2C(F)(F)F)CC1` here?
Answer: 221 nM

Question: With `CN(C)S(=O)(=O)c1ccc(C(=O)N2CCC(c3ccc(C(=O)NC(=N)N)cc3C(F)(F)F)CC2)cc1` as the molecule, how does the EC50 read?
Answer: 241 nM

Question: With `CNC(=O)c1ccc(C(=O)N2CCC(c3ccc(C(=O)NC(=N)N)cc3C(F)(F)F)CC2)cc1` as the molecule, how does the EC50 read?
Answer: 214 nM

Question: Which EC50 does the source give for `N=C(N)NC(=O)c1ccc(C2CCN(C(=O)c3ccc(=O)[nH]c3)CC2)c(C(F)(F)F)c1` here?
Answer: 25 nM

Question: For `CCCC(=O)N1CCC(c2ccc(C(=O)NC(=N)N)cc2C(F)(F)F)CC1`, which EC50 is on record?
Answer: 201 nM
